These results are taken from patent US5902810A, “Pteridine derivatives as no synthase inhibitors” (Hoechst Aktiengesellschaft, priority 1994, dated 1999).

Molecules are shown by their SMILES.

In one experiment the test system is purified NO synthase from pig liver. In words: Inhibition of the activity of purified nitric oxide synthase (NOS), 3H-L-citrulline formation, enzyme from pig liver. To be noted: substance 100 μM, antagonistic test in the presence of 2 μM tetrahydrobiopterin, 37° C., 15 minutes. The format is biochemical. An excerpt: The inhibition of NO release by the compounds of the formula I can be determined by an activity assay based on the studies of Bredt and Snyder and also Schmidt et al. (see D. S. Bredt and S. S. Snyder, Isolation of nitric oxide synthase, a calmodulin-requiring enzyme, Proc. Natl. Acad. Sci. USA 87 (1990), 682; H. H. H. W. Schmidt et al., Purification of a soluble isoform of guanylyl cyclase-activating factor synthase, Proc. Natl. Acad. Sci. USA 88 (1991), 365). In this assay for purified NO synthase (NOS) the coproduct L-citrulline obtained during NO formation is determined quantitatively. […] After the enzyme incubation is complete, resulting L-citrulline is removed from unused L-arginine by means of ion-exchange chromatography of the reaction mixture; the ^3 H-activity determined by liquid scintillation measurement then corresponds to the amount of L-citrulline. […]
The coproduct L-citrulline obtained during the formation of NO by purified NOS is determined quantitatively in this activity assay. […] After the enzyme incubation is complete, resulting L-citrulline is removed from unused L-arginine by means of ion-exchange chromatography of the reaction mixture; the ^3 H activity measured by liquid scintillation then corresponds to the amount of L-citrulline, which is a direct measure of the activity of NOS. […]
Take `N=c1[nH]c(N)nc2ncc(CN)nc12` [Example 76]: the “Citrulline formation (% of the control)” value was 22.4 % of the control.

The target in a further experiment is T1, purified NO synthase from pig cerebellum (Sus scrofa, UniProt F1RKF2).
T1 construct: purified NO synthase from pig cerebellum; from tissue; host or cells: pig cerebellum
In words: Inhibition of the activity of purified nitric oxide synthase (NOS), 3H-L-citrulline formation, enzyme from pig cerebellum. Format: biochemical. To be noted: 0.25 h, substance 100 μM, antagonistic test in the presence of 2 μM tetrahydrobiopterin, 37° C., 15 minutes, read-out: Citrulline formation (% of the control).
Experimental: In this assay for purified NO synthase (NOS) the coproduct L-citrulline obtained during NO formation is determined quantitatively. This is carried out by the use of ^3 H-radiolabeled L-arginine as a substrate of the enzyme reaction, which is reacted to give ^3 H-L-citrulline and NO. After the enzyme incubation is complete, resulting L-citrulline is removed from unused L-arginine by means of ion-exchange chromatography of the reaction mixture; the ^3 H-activity determined by liquid scintillation measurement then corresponds to the amount of L-citrulline.
The coproduct L-citrulline obtained during the formation of NO by purified NOS is determined quantitatively in this activity assay. The substrate of the enzyme reaction employed is ^3 H-radiolabeled L-arginine, which is reacted to give ^3 H-L-citrulline and NO. After the enzyme incubation is complete, resulting L-citrulline is removed from unused L-arginine by means of ion-exchange chromatography of the reaction mixture; the ^3 H activity measured by liquid scintillation then corresponds to the amount of L-citrulline, which is a direct measure of the activity of NOS.
The base medium for carrying out the enzyme reaction is TE buffer (triethanolamine, EDTA, pH 7.0). The final volume of each incubation is 100 μl. The reaction mixture is obtained by mixing the following 6 components on ice:
"REA mix" (pH 7.0), which contains triethanolamine, calcium chloride, magnesium chloride, EDTA, L-arginine, calmodulin and flavine adenine dinucleotide (FAD);
2. freshly prepared stock solution of β-nicotinamide adenine dinucleotide phosphate, reduced form (NADPH); […]
Triethanolamine 50 mM, EDTA 0.5 mM, CaCl2 226 μM, MgCl2 477 μM, L-arginine 50 μM, calmodulin 0.5 μM, FAD 5 μM, NADPH 1 mM, BH4 (if added) 2 μM, substance to be tested 100 μM. […] 9 ml of scintillator solution are added to the 3 ml aqueous measuring solution and the homogeneous mixture is measured for 1 minute per sample in a Tricarb 2500 TR (Packard) liquid scintillation counter. […]
Turning to `CC(NC(=O)OCc1ccccc1)C(=O)OCc1cnc2nc(N)[nH]c(=O)c2n1` (stereo not shown) [Example 21], the remaining activity at 100 µM came to 60.8%.
The same measure, in the same setting: then `CSCc1cnc2nc(N)[nH]c(=O)c2n1` [Example 37], with 22.9%; and `Nc1nc2ncc(COC(=O)C(Cc3ccccc3)NC(=O)OCc3ccccc3)nc2c(=O)[nH]1` (stereo not shown) [Example 23], with 2.5%.

Another experiment concerns NO synthase.
Experiment: not given
To be noted: literature reports (Kwon et al.; Giovanelli et al.; Hevel and Marletta); cited from earlier work.
For `C[C@H](O)[C@H](O)c1cnc2nc(N)[nH]c(=O)c2n1` [biopterin], the “Effect on NO production / NO synthase activity” value is listed as “no significant effects”.
As for `CC1CNc2nc(N)[nH]c(=O)c2N1` (stereo not shown) [6-methyl-5,6,7,8-tetrahydropterin], the “Effect on NO production / NO synthase activity” value was “increase in NO synthase activity”.
With `C[C@H](O)[C@H](O)C1=Nc2c(nc(N)[nH]c2=O)NC1` [7,8-dihydrobiopterin], the “Effect on NO production / NO synthase activity” value is given as “Stimulation of NO production”.
Regarding `C[C@H](O)[C@H](O)[C@H]1CNc2nc(N)[nH]c(=O)c2N1` [tetrahydrobiopterin], the “Effect on NO production / NO synthase activity” value is “stimulates NO production”.
Take `Nc1nc2ncc(CNc3ccc(C(=O)N[C@@H](CCC(=O)O)C(=O)O)cc3)nc2c(=O)[nH]1` [folic acid]: the “Effect on NO production / NO synthase activity” value is on record as “no significant effects”.
In the case of `Nc1nc2nccnc2c(=O)[nH]1` [pterin], the “Effect on NO production / NO synthase activity” value is “no significant effects”.
